Values of other authors in paper PMC9516332 (Frontiers in Oncology, 2022).
Read-outs that look alike come from different tables or passages of the source.

Legend:
Conditions in all cases: cited from earlier work
[1] = target: panel of 255 wild-type kinases (Homo sapiens, UniProt P05771)
[2] = target: panel of 255 wild-type kinases (Homo sapiens, UniProt P07949)
[3] = target: panel of 255 wild-type kinases (Homo sapiens, UniProt P17252)
[4] = target: panel of 255 wild-type kinases (Homo sapiens, UniProt P17612)
[5] = target: panel of 255 wild-type kinases (Homo sapiens, UniProt P49840)
[6] = target: panel of 255 wild-type kinases (Homo sapiens, UniProt P54756)
[7] = target: panel of 255 wild-type kinases (Homo sapiens, UniProt Q04912)
[8] = target: T1, panel of 255 wild-type kinases (Homo sapiens, UniProt Q13043)
T1 sequence (Q13043 1-487): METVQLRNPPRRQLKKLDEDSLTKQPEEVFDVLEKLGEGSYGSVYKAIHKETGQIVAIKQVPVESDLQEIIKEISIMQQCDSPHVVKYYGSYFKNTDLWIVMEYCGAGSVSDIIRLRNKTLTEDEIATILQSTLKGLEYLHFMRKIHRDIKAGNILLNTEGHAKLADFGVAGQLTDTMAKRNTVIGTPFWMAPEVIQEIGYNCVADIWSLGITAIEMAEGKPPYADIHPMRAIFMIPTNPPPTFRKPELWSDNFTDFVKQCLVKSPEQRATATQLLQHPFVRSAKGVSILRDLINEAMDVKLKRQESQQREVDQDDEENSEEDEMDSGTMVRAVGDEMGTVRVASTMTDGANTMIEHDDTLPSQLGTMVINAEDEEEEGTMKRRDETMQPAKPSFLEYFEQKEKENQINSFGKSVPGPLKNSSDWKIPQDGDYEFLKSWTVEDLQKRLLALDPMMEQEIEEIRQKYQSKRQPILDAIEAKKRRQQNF

[9] = target: panel of 255 wild-type kinases (Homo sapiens, UniProt Q13464)
[10] = target: panel of 255 wild-type kinases (Homo sapiens, UniProt Q15349)
[11] = target: panel of 255 wild-type kinases (Homo sapiens, UniProt Q15418)
[12] = target: T2, panel of 255 wild-type kinases (Homo sapiens, UniProt Q9NWZ3)
T2 sequence (Q9NWZ3 1-460): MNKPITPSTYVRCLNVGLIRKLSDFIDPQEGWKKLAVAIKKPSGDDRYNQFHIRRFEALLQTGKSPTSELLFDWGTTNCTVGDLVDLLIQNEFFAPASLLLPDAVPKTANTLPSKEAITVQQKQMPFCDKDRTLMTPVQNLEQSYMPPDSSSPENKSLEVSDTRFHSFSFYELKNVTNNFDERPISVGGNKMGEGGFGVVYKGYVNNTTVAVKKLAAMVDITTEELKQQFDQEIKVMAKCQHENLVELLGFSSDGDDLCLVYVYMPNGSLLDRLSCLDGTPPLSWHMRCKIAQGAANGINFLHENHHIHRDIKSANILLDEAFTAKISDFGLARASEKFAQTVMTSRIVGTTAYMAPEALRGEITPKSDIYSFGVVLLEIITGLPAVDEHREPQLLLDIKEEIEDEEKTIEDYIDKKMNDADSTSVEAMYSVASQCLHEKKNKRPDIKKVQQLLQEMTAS

[13] = target: panel of 255 wild-type kinases (Homo sapiens, UniProt Q9UK32)
[14] = target: panel of 255 wild-type kinases (Homo sapiens, UniProt Q9UQM7)
[15] = kinase PKCβ1, 1 µmol/L single concentration, ref DOI: 10.1158/1535-7163.MCT-18-0877
[16] = kinase RET, 1 µmol/L single concentration, ref DOI: 10.1158/1535-7163.MCT-18-0877
[17] = kinase PKCα, 1 µmol/L single concentration, ref DOI: 10.1158/1535-7163.MCT-18-0877
[18] = kinase PKACα, 1 µmol/L single concentration, ref DOI: 10.1158/1535-7163.MCT-18-0877
[19] = kinase GSK3α, 1 µmol/L single concentration, ref DOI: 10.1158/1535-7163.MCT-18-0877
[20] = kinase EPHA5, 1 µmol/L single concentration, ref DOI: 10.1158/1535-7163.MCT-18-0877
[21] = kinase RON, 1 µmol/L single concentration, ref DOI: 10.1158/1535-7163.MCT-18-0877
[22] = MST1, 1 µmol/L single concentration, ref DOI: 10.1158/1535-7163.MCT-18-0877
[23] = kinase ROCK1, 1 µmol/L single concentration, ref DOI: 10.1158/1535-7163.MCT-18-0877
[24] = kinase RSK3, 1 µmol/L single concentration, ref DOI: 10.1158/1535-7163.MCT-18-0877
[25] = kinase RSK1, 1 µmol/L single concentration, ref DOI: 10.1158/1535-7163.MCT-18-0877
[26] = kinase IRAK4, 1 µmol/L single concentration, ref DOI: 10.1158/1535-7163.MCT-18-0877
[27] = kinase RSK4, 1 µmol/L single concentration, ref DOI: 10.1158/1535-7163.MCT-18-0877
[28] = CaMK2α kinase assay, 1 µmol/L single concentration, ref DOI: 10.1158/1535-7163.MCT-18-0877
[29] = kinase RSK4, 1 µmol/L single concentration, ref DOI: 10.1371/journal.pone.0092146
[30] = CaMK2α kinase assay, 1 µmol/L single concentration, ref DOI: 10.1371/journal.pone.0092146

SMILES	%-inhibition at 1 µmol/L, PKCβ1 [1, 15]	%-inhibition at 1 µmol/L, RET [2, 16]	%-inhibition at 1 µmol/L, PKCα [3, 17]	%-inhibition at 1 µmol/L, PKACα [4, 18]	%-inhibition at 1 µmol/L, GSK3α [5, 19]	%-inhibition at 1 µmol/L, EPHA5 [6, 20]	%-inhibition at 1 µmol/L, RON [7, 21]	%-inhibition, MST1 [8, 22]	%-inhibition at 1 µmol/L, ROCK1 [9, 23]	%-inhibition at 1 µmol/L, RSK3 [10, 24]	%-inhibition at 1 µmol/L, RSK1 [11, 25]	%-inhibition at 1 µmol/L, IRAK4 [12, 26]	%-inhibition at 1 µmol/L, RSK4 [13, 27]	%-inhibition CaMK2α [14, 28]	also measured
CC#CC(=O)N1CCC[C@H]1c1nc(-c2ccc(C(=O)Nc3ccccn3)cc2)c2c(N)nccn12 [acalabrutinib]	-11%	14%	-17%	-5%	2.47%	-1.17%	8%	4%	-8%	1.13%	3.57%	-6.55%	4.21%	-3.43%	
CCc1cc2c(cc1N1CCC(N3CCOCC3)CC1)C(C)(C)c1[nH]c3cc(C#N)ccc3c1C2=O [alectinib]	-1.89%	91%	1.48%	5%	4.36%	2.67%	10%	10%	-2%		15%	19%	19%	0.405%	
COc1cc(N2CCC(N3CCN(C)CC3)CC2)ccc1Nc1ncc(Cl)c(Nc2ccccc2P(C)(C)=O)n1 [brigatinib]															%-inhibition at 1 µmol/L, PKCβ1 [1]: 7.42%; %-inhibition at 1 µmol/L, RET [2]: 96%; %-inhibition at 1 µmol/L, PKCα [3]: 15%; %-inhibition at 1 µmol/L, PKACα [4]: 17%; %-inhibition at 1 µmol/L, GSK3α [5]: 4%; %-inhibition at 1 µmol/L, EPHA5 [6]: 4%; %-inhibition at 1 µmol/L, RON [7]: 18%; %-inhibition, MST1 [8]: 71%; %-inhibition at 1 µmol/L, ROCK1 [9]: 25%; %-inhibition at 1 µmol/L, RSK3 [10]: 100%; %-inhibition at 1 µmol/L, RSK1 [11]: 98%; %-inhibition at 1 µmol/L, IRAK4 [12]: 46%; %-inhibition at 1 µmol/L, RSK4 [13]: 98%; %-inhibition CaMK2α [14]: 86%
Cc1cc(Nc2ncc(Cl)c(Nc3ccccc3S(=O)(=O)C(C)C)n2)c(OC(C)C)cc1C1CCNCC1 [ceritinib]	6.66%	32%	-9%	-8%	15%	5%	9%	17%	31%	90%	75%	1.3%	83%	15%	
O=C(c1ccc(F)c(F)c1Nc1ccc(I)cc1F)N1CC(O)([C@@H]2CCCCN2)C1 [cobimetinib]	-4.35%	4%	1.54%	-10%	3.42%	1.26%	-9%	-9%	-2.61%	8%	1.39%	-4.31%	5.52%	7%	
C[C@@H](Oc1cc(-c2cnn(C3CCNCC3)c2)cnc1N)c1c(Cl)ccc(F)c1Cl [crizotinib]															%-inhibition at 1 µmol/L, PKCβ1 ([1]; kinase PKCβ1, 1 µmol/L single concentration, ref DOI: 10.1371/journal.pone.0092146): -3%; %-inhibition at 1 µmol/L, PKCα ([3]; kinase PKCα, 1 µmol/L single concentration, ref DOI: 10.1371/journal.pone.0092146): -8.47%; %-inhibition at 1 µmol/L, PKACα ([4]; kinase PKACα, 1 µmol/L single concentration, ref DOI: 10.1371/journal.pone.0092146): -6%; %-inhibition at 1 µmol/L, GSK3α ([5]; kinase GSK3α, 1 µmol/L single concentration, ref DOI: 10.1371/journal.pone.0092146): -2.56%; %-inhibition at 1 µmol/L, EPHA5 ([6]; kinase EPHA5, 1 µmol/L single concentration, ref DOI: 10.1371/journal.pone.0092146): 71%; %-inhibition, MST1 ([8]; MST1, 1 µmol/L single concentration, ref DOI: 10.1371/journal.pone.0092146): 83%; %-inhibition at 1 µmol/L, ROCK1 ([9]; kinase ROCK1, 1 µmol/L single concentration, ref DOI: 10.1371/journal.pone.0092146): 3.39%; %-inhibition at 1 µmol/L, RSK3 ([10]; kinase RSK3, 1 µmol/L single concentration, ref DOI: 10.1371/journal.pone.0092146): 3.34%; %-inhibition at 1 µmol/L, RSK1 ([11]; kinase RSK1, 1 µmol/L single concentration, ref DOI: 10.1371/journal.pone.0092146): -5%; %-inhibition at 1 µmol/L, IRAK4 ([12]; kinase IRAK4, 1 µmol/L single concentration, ref DOI: 10.1371/journal.pone.0092146): 8%; %-inhibition at 1 µmol/L, RSK4 [13, 29]: -1.58%; %-inhibition CaMK2α [14, 30]: -2.77%
CC(C)(C)c1nc(-c2cccc(NS(=O)(=O)c3c(F)cccc3F)c2F)c(-c2ccnc(N)n2)s1 [dabrafenib]															%-inhibition at 1 µmol/L, RET ([2]; kinase RET, 1 µmol/L single concentration, ref DOI: 10.1371/journal.pone.0092146): 49%; %-inhibition at 1 µmol/L, RON ([7]; kinase RON, 1 µmol/L single concentration, ref DOI: 10.1371/journal.pone.0092146): 37%; %-inhibition at 1 µmol/L, RSK4 [13, 29]: 2.2%; %-inhibition CaMK2α [14, 30]: -2.14%
CO[C@@H]1[C@H](N(C)C(=O)c2ccccc2)C[C@H]2O[C@]1(C)n1c3ccccc3c3c4c(c5c6ccccc6n2c5c31)C(=O)NC4 [midostaurin]	89%	94%	92%	93%		8%	22%		13%	98%	98%	27%			%-inhibition at 1 µmol/L, GSK3α [5]: 87%
